Measurements published in patent EP0473671B1, “USE OF SIGMA-RECEPTORS LIGANDS FOR THE MANUFACTURE OF AN ANXIOLYTIC AGENT” (STATE OF OREGON BY AND THROUGH OREGON STATE BOARD OF HIGHER …, priority 1989, dated 1990).
Like-named read-outs stand apart in the source and are kept apart here.

How the values were obtained:
sigma receptors = assay: Sigma receptor binding assay, displacement of [³H]DTG; details: guinea pig brain membrane homogenates, radioligand [³H]DTG […], 90 minutes at room temperature; read-out: IC₅₀ binding values
Protocol: Briefly, frozen whole guinea-pig brains (Biotrol, Indianapolis, IN) were homogenized in 10 volumes (w/v) of ice-cold 320 mM sucrose using a Brinkman polytron. The homogenate was centrifuged at 1,000 x g for 20 minutes at 4°C. The supernatant was centrifuged at 20,000 x g for 20 minutes at 4°C. The resulting pellet was resuspended in 10 initial volumes of 50 mM Tris/HCl buffer at pH 7.4 and centrifuged at 20,000 x g for 20 minutes at 4°C. The resulting pellet was resuspended in 5 initial volumes ice-cold 50mM Tris/Hcl (pH .4), and the final volume was adjusted to yield a protein concentration of 3 mg/ml, as determined by dye-binding protein assay (Biorad) using BSA as the standard.
Incubations were terminated after 90 minutes at room temperature by addition of 4 ml of ice-cold 50mM Tris/HCl (pH 7.4) and rapid filtration of the membrane suspension through Whatman GF/B glass-fiber filters under vacuum, using a 48-well cell harvester (Brandel, Gaithersburg, MD). The filters were washed 2 times with 4 ml of 50 mM Tris/HCl (pH 7.4). Total filtration and washing time was less than 20 seconds. Each filter was dissolved in 10 ml Cytoscint (Westchem, San Diego, CA), and radioactivity was measured by liquid scintillation spectrometry at a counting efficiency of approximately 50%. IC₅₀ values were determined by interpolation from displacement-curve plots on semilogarithmic graph paper.

male albino BKW mice [1] = assay: Light/dark exploration of mice (black:white test box); details: for numbers of rears and line crossings compared with controls (sedation): not sedative at the dosage level; for latency to entering the dark compartment / numbers of rears and line crossings at the highest dose (sedation): subcutaneously; for numbers of rears and line crossings at the highest dose (sedation): 0.1 mg/kg, drug not sedative at this level
Male Hooded Lister rats = assay: Rat social interaction test; assay type: in vivo; details: for social interactions: 40 min. before testing, 10 min session, n = 6
Description: A second preferred animal model is the rat social interaction test described by Jones, B.J. et al., supra, wherein the time that two mice spend in social interaction is quantified. […] Both the familiarity and the light level of the test arena may be manipulated. Undrugged rats show the highest level of social interaction when the test arena is familiar and is lit by low light. Social interaction declines if the arena is unfamiliar to the rats or is lit by bright light. Anxiolytic agents prevent this decline. The overall level of motor activity may also be measured to allow detection of drug effects specific to social behaviors.
Male Hooded Lister rats (Glaxo bred, 200-250g), were housed 5 to a cage and were kept in the laboratory environment for at least a week before testing. Rats paired in the test were taken from separate cages.
The test arena consisted of an open-topped box, 62 x 62 x 33 cm with a 7 x 7 matrix of infra-red photocell beams in the walls, 2.5 cm from the floor.
Testing involved placing each member of a pair of rats in opposite corners of the arena and then leaving them undisturbed for 10 min. while recording their behavior remotely on videotape. The behavioral assessments were made subsequently from the recordings. The time spent in social interaction was measured and expressed as a cumulative total for the 10 min session. The behaviors that comprised social interaction were: following with contact, sniffing (but not sniffing of the hindquarters), crawling over and under, tumbling, boxing and grooming.
N-adamantyl-N'-o-tolylguanidine was tested over the range of 0.001-0.1 mg/kg.

male albino BKW mice [2] = details: mouse, in vivo
[3] = subcutaneously 40 min before testing, 0.01 ug to 0.1 mg/kg
[4] = 0.01 ug to 0.1 mg/kg, result in words

N=C(Nc1ccccc1I)N[C@@H]1C[C@@H]2CC[C@H]1C2 (racemic) [N-((±)-endo-2-norbornyl)-N'-(2-iodophenyl)guanidine]
IC50 (sigma receptors): 0.005 µM

Cc1ccccc1NC(=N)N[C@@H]1C[C@@H]2CC[C@H]1C2 (racemic) [N-((±)-endo-2-norbornyl)-N'-(2-methylphenyl)guanidine]
IC50 (sigma receptors): 0.006 µM

N=C(Nc1ccccc1I)N[C@H]1C[C@@H]2CC[C@H]1C2 (relative stereo) [N-(exo-2-norbornyl)-N'-(2-iodophenyl)guanidine]
IC50 (sigma receptors): 0.004 µM

Cc1ccccc1NC(=N)N[C@H]1C[C@@H]2CC[C@H]1C2 (relative stereo) [N-(exo-2-norbornyl)-N'-(2-methylphenyl)guanidine]
IC50 (sigma receptors): 0.007 µM

CCCN1CCC[C@@H](c2cccc(O)c2)C1 [(-)-3-PPP, reference compound]
IC50 (sigma receptors): 0.28 ± 0.021 µM

C=CCN1CC[C@@]2(C)c3cc(O)ccc3C[C@@H]1[C@@H]2C [(-)-SKF10047, reference compound]
IC50 (sigma receptors): 4 ± 0.566 µM

N=C(NC1CCCCC1)NC12CC3CC(CC(C3)C1)C2 [AdChG, N-(cyclohexyl)-N'-(adamant-1-yl)guanidine]
IC50 (sigma receptors): 0.0125 µM

NC(=Nc1ccccc1I)NC12CC3CC(CC(C3)C1)C2 [AdIpG, N-(2-iodophenyl)-N'-(adamant-1-yl)guanidine]
anxiolytic activity when orally administered (male albino BKW mice [1]; orally administered, 1 mg/kg): anxiolytic activity
latency to entering the dark compartment in comparison to controls (male albino BKW mice [1]; orally administered, 1 mg/kg): increase
numbers of line crossings and rears in the light compartment (male albino BKW mice [1]; orally administered, 1 mg/kg): increase
numbers of rears and line crossings compared with controls (sedation) (male albino BKW mice [1]; orally administered, 1 mg/kg): did not decrease significantly
numbers of line crossings and rears in the light compartment (male albino BKW mice [1]; [3]): increased at the expense of those in the dark compartment
proportion of time the mice spent in the larger, lighted area of the test chamber (male albino BKW mice [1]; [3]): increased, in a dose dependant manner
latency to entering the dark compartment (male albino BKW mice [1]; [4]): increased in a dose dependant manner
numbers of rears and line crossings at the highest dose (sedation) (male albino BKW mice [1]): did not decrease significantly
IC50 (sigma receptors): 0.0062 µM

Cc1ccccc1NC(=N)NC12CC3CC(CC(C3)C1)C2 [AdTG, N-(o-tolyl)-N'-(adamant-1-yl)guanidine]
social interactions (Male Hooded Lister rats; 0.001-0.1 mg/kg i.p.): significantly increased
dose producing about the same result, relative to the dose of diazepam (Male Hooded Lister rats; 1 mg/kg for diazepam and 0.1 mg/kg for N-adamantyl-N'-o-tolylguanidine): one-tenth
anxiolytic activity when orally administered (male albino BKW mice [1]; orally administered, 1 mg/kg): anxiolytic activity
numbers of line crossings and rears in the light compartment (male albino BKW mice [1]; orally administered, 1 mg/kg): increased at the expense of those in the dark compartment
proportion of time the mice spent in the larger, lighted area of the box (male albino BKW mice [1]; orally administered, 1 mg/kg): increased significantly
numbers of line crossings and rears in the light compartment (male albino BKW mice [1]; [3]): increased at the expense of those in the dark compartment
proportion of time the mice spent in the larger, lighted area of the test chamber (male albino BKW mice [1]; [3]): dose dependently increased
latency to entering the dark compartment (male albino BKW mice [1]; [4]): increased in a dose dependant manner
numbers of rears and line crossings at the highest dose (sedation) (male albino BKW mice [1]): did not decrease significantly

N=C1Nc2ccccc2-c2ccccc2N1 [Bridge-DPG, 2-imino-1,3H-dibenzo[d,f]-[1,3]-diazepine]
IC50 (sigma receptors): > 100 µM

N=C(NC12CC3CC(CC(C3)C1)C2)NC12CC3CC(CC(C3)C1)C2 [DAG, N,N'-di(adamant-1-yl)guanidine]
anxiolytic activity when orally administered (male albino BKW mice [1]; orally administered, 1 mg/kg): anxiolytic activity
latency to entering the dark compartment in comparison to controls (male albino BKW mice [1]; orally administered, 1 mg/kg): increase
numbers of line crossings and rears in the light compartment (male albino BKW mice [1]; orally administered, 1 mg/kg): increase
numbers of rears and line crossings compared with controls (sedation) (male albino BKW mice [1]; orally administered, 1 mg/kg): did not decrease significantly
numbers of line crossings and rears in the light compartment (male albino BKW mice [1]; [3]): increased at the expense of those in the dark compartment
proportion of time the mice spent in the larger, lighted area of the test chamber (male albino BKW mice [1]; [3]): tended to increase
numbers of rears and line crossings at the highest dose (sedation) (male albino BKW mice [1]): did not decrease significantly
latency to entering the dark compartment (male albino BKW mice [1]; peak effect at 0.01 ug/kg, controls 12 sec): 20 s

Cc1ccccc1NC(=N)NC1CCCCC1 [DChG, N-(o-tolyl)-N'-(cyclohexyl)guanidine]
IC50 (sigma receptors): 0.086 ± 0.017 µM

CNC(=N)NC [DMG, N,N'-di(methyl)guanidine]
IC50 (sigma receptors): > 100 µM

Cc1cccc(C)c1NC(=N)Nc1c(C)cccc1C [DXG, N,N'-di-(2,6-dimethylphenyl)-guanidine]
IC50 (sigma receptors): 0.09 ± 0.018 µM

Cc1ccccc1NC(=N)NC1C2CC3CC(C2)CC1C3 (centres unmarked) [N-(adamant-2-yl)-N'-(2-methylphenyl)guanidine]
IC50 (sigma receptors): 0.007 µM

N=C(Nc1ccccc1I)NC1C2CC3CC(C2)CC1C3 (centres unmarked) [N-adamant-2-yl)-N'-(2-iodophenyl)guanidine]
IC50 (sigma receptors): 0.0035 µM

Cc1ccccc1NC(=N)NC1CCCCC1 [N-cyclohexyl-N'-(2-methylphenyl)-guanidine]
IC50 (sigma receptors): 0.013 µM

Cc1ccccc1NC(=N)Nc1ccc(N)cc1C [NH₂-DTG]
IC50 (sigma receptors): 0.28 ± 0.02 µM

CN(C)CCCN1c2ccccc2Sc2ccc(Cl)cc21 [chlorpromazine, reference compound]
IC50 (sigma receptors): 1.48 ± 0.265 µM

CN1C(=O)CN=C(c2ccccc2)c2cc(Cl)ccc21 [diazepam, reference compound]
social interactions (Male Hooded Lister rats; diazepam intraperitoneally 0.125-1 mg/kg): significantly increased
numbers of rears and line crossings at the highest dose (sedation) (male albino BKW mice [2]): decreased significantly
numbers of line crossings and rears in the light compartment (male albino BKW mice [1]; mouse, in vivo): increased at the expense of those in the dark compartment
proportion of time the mice spent in the larger, lighted area of the test chamber (male albino BKW mice [1]; mouse, in vivo): dose-dependently increased

CCN1CCCC1CNC(=O)c1cc(S(N)(=O)=O)ccc1OC (centres unmarked) [sulpiride, reference compound]
IC50 (sigma receptors): > 0.1 µM

O=C1CC2(CCCC2)CC(=O)N1CCCCN1CCN(c2nsc3ccccc23)CC1 [tiospirone, reference compound]
IC50 (sigma receptors): 0.233 ± 0.052 µM

N,N-di(o-tolyl)-guanidine [DTG]
number of rears, crossings, or the % time in the black compartment (male albino BKW mice [1]; s.c., at the concentrations tested, Figure 7): did not affect significantly

N-(adamant-1-yl)-N'-[(E)-2-phenylethenyl]phenylguanidine
numbers of line crossings and rears in the light compartment (male albino BKW mice [1]; [3]): tended to remain the same except at the highest dosage
proportion of time the mice spent in the larger, lighted area of the test chamber (male albino BKW mice [1]; [3]): generally did not increase
numbers of rears and line crossings at the highest dose (sedation) (male albino BKW mice [1]): did not decrease significantly
IC50 (sigma receptors): 1 µM
